Experimental data reported in patent publication US5112992A, “Production of polycarboxylic acids with hafnium-activated cobalt catalyst” (Amoco Corporation, priority 1991, dated 1992).

Columns and labels:
[1] = Metal remaining soluble in filtrate (pyromellitic acid) after durene oxidation
[2] = Solubility of hafnium and zirconium tetrabromides in acetic acid-water mixtures in presence of trimellitic acid
Experimental: Solubility of hafnium compounds, i.e., hafnium bromide, was determined in acetic acid-water mixtures in the presence of trimellitic acid and pyromellitic acid. Hafnium tetrabromide, 0.0012M, was heated in a 20% water-acetic acid solution to reflux. Trimellitic acid (0.71M) was added.

## [Br][Hf]([Br])([Br])[Br] [Hafnium tetrabromide]
[1]; Example V: durene oxidation reactor effluent cooled to room temperature and filtered
  metal remained soluble: 36%
[1]; Metal in filtrate after durene oxidation
  % Soluble: 32%
[2]; 0.0012M tetrabromide in 20% water-acetic acid at reflux, trimellitic acid 0.71M added
  Appearance of solution after adding trimellitic acid: remained clear
[2]; Metal + trimellitic acid in 20% H2O-HOAc at 25° C., solution cooled and solids filtered off, molar basis
  % Soluble: 36%
[2]; Metal + trimellitic acid in 20% H2O-HOAc at 100° C.
  % Soluble: 100%
